According to the supplement of paper PMC10307832:

What was measured:
Test in all cases: relative viability (nuclei count vs DMSO), 5 days (fraction); higher = more cells survive
CAP-232 + OSI-027 = compound: C[C@H]([C@@H](C(=O)N)NC(=O)[C@@H]1CSSC[C@@H](C(=O)N[C@H](C(=O)N[C@@H](C(=O)N[C@H](C(=O)N1)CCCCN)CC2=CNC3=CC=CC=C32)CC4=CC=C(C=C4)O)NC(=O)[C@@H](CC5=CC=CC=C5)N)O [CAP-232] + COc1cccc2cc(-c3nc([C@H]4CC[C@H](C(=O)O)CC4)n4ncnc(N)c34)[nH]c12 [OSI-027] (partner 0.5 µM)
Procedure, shortened: (§1)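 Cells from lung cancer lines were seeded into 1536-well plates and, one day later, dosed by pin tool. Treatments were either a single drug or a fixed dose of an anchor drug with five library-drug doses (not always all listed) in √10 steps. After 5 days, nuclei were stained in a one-step fixation (final 0.05% Triton X-100, 1% formaldehyde, 1 ug/ml Hoechst) and counted on 4× images, and relative viability is the treated-to-vehicle nuclei ratio, as the median of duplicate plates.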

CAP-232 + Palbociclib = compound: C[C@H]([C@@H](C(=O)N)NC(=O)[C@@H]1CSSC[C@@H](C(=O)N[C@H](C(=O)N[C@@H](C(=O)N[C@H](C(=O)N1)CCCCN)CC2=CNC3=CC=CC=C32)CC4=CC=C(C=C4)O)NC(=O)[C@@H](CC5=CC=CC=C5)N)O [CAP-232] + CC(=O)c1c(C)c2cnc(Nc3ccc(N4CCNCC4)cn3)nc2n(C2CCCC2)c1=O [Palbociclib] (partner 0.5 µM)
Procedure, shortened: as §1

CAP-232 + Pemetrexed = compound: C[C@H]([C@@H](C(=O)N)NC(=O)[C@@H]1CSSC[C@@H](C(=O)N[C@H](C(=O)N[C@@H](C(=O)N[C@H](C(=O)N1)CCCCN)CC2=CNC3=CC=CC=C32)CC4=CC=C(C=C4)O)NC(=O)[C@@H](CC5=CC=CC=C5)N)O [CAP-232] + Nc1nc2[nH]cc(CCc3ccc(C(=O)N[C@@H](CCC(=O)O)C(=O)O)cc3)c2c(=O)[nH]1 [Pemetrexed] (partner 0.2 µM)
Procedure, shortened: as §1

CAP-232 + Tozasertib = compound: C[C@H]([C@@H](C(=O)N)NC(=O)[C@@H]1CSSC[C@@H](C(=O)N[C@H](C(=O)N[C@@H](C(=O)N[C@H](C(=O)N1)CCCCN)CC2=CNC3=CC=CC=C32)CC4=CC=C(C=C4)O)NC(=O)[C@@H](CC5=CC=CC=C5)N)O [CAP-232] + Cc1cc(Nc2cc(N3CCN(C)CC3)nc(Sc3ccc(NC(=O)C4CC4)cc3)n2)n[nH]1 [Tozasertib] (partner 0.1 µM)
Procedure, shortened: as §1

CAP-232 + Bortezomib = compound: C[C@H]([C@@H](C(=O)N)NC(=O)[C@@H]1CSSC[C@@H](C(=O)N[C@H](C(=O)N[C@@H](C(=O)N[C@H](C(=O)N1)CCCCN)CC2=CNC3=CC=CC=C32)CC4=CC=C(C=C4)O)NC(=O)[C@@H](CC5=CC=CC=C5)N)O [CAP-232] + CC(C)C[C@H](NC(=O)[C@H](Cc1ccccc1)NC(=O)c1cnccn1)B(O)O [Bortezomib] (partner 0.002 µM)
Procedure, shortened: as §1

Cell Line | relative viability (CAP-232 + OSI-027; first compound 0.4 µM) | relative viability (CAP-232 + OSI-027; first compound 1.265 µM) | relative viability (CAP-232 + OSI-027; first compound 4 µM) | relative viability (CAP-232 + OSI-027; first compound 12.65 µM) | relative viability (CAP-232 + Palbociclib; first compound 0.4 µM) | relative viability (CAP-232 + Palbociclib; first compound 1.265 µM) | relative viability (CAP-232 + Palbociclib; first compound 4 µM) | relative viability (CAP-232 + Palbociclib; first compound 12.65 µM) | relative viability (CAP-232 + Pemetrexed; first compound 0.4 µM) | relative viability (CAP-232 + Pemetrexed; first compound 1.265 µM) | relative viability (CAP-232 + Pemetrexed; first compound 4 µM) | relative viability (CAP-232 + Pemetrexed; first compound 12.65 µM) | relative viability (CAP-232 + Tozasertib; first compound 0.4 µM) | relative viability (CAP-232 + Tozasertib; first compound 1.265 µM) | relative viability (CAP-232 + Tozasertib; first compound 4 µM) | relative viability (CAP-232 + Tozasertib; first compound 12.65 µM) | relative viability (CAP-232 + Bortezomib; first compound 0.4 µM) | relative viability (CAP-232 + Bortezomib; first compound 1.265 µM) | relative viability (CAP-232 + Bortezomib; first compound 4 µM) | relative viability (CAP-232 + Bortezomib; first compound 12.65 µM)
EMC-BAC-2 | 0.407 | 0.324 | 0.328 | 0.358 | 0.507 | 0.512 | 0.491 | 0.427 | 0.44 | 0.412 | 0.422 | 0.442 | 0.304 | 0.276 | 0.289 | 0.247 | 1.13 | 1.11 | 1.14 | 1.12
PC-3 [JPC-3] | 0.853 | 0.794 | 0.796 | 0.73 | 0.583 | 0.542 | 0.545 | 0.555 | 1.63 | 1.05 | 0.992 | 0.888 | 1.05 | 0.949 | 0.924 | 0.91 | 0.939 | 0.855 | 0.734 | 0.788
NCI-H520 | 0.258 | 0.31 | 0.304 | 0.3 | 0.241 | 0.224 | 0.249 | 0.234 | 0.581 | 0.651 | 0.673 | 0.634 | 0.439 | 0.405 | 0.395 | 0.354 | 0.71 | 0.508 | 0.611 | 0.438
NCI-H1755 | 0.699 | 0.713 | 0.754 | 0.653 | 0.474 | 0.406 | 0.48 | 0.413 | 0.398 | 0.375 | 0.514 | 0.393 | 0.581 | 0.498 | 0.58 | 0.498 | 1.05 | 0.912 | 1.15 | 0.887
NCI-H2087 | 0.444 | 0.489 | 0.596 | 0.41 | 0.214 | 0.225 | 0.218 | 0.226 | 0.662 | 0.655 | 0.68 | 0.604 | 0.193 | 0.212 | 0.221 | 0.311 | 1.01 | 0.746 | 1.14 | 0.462
NCI-H2023 | 0.429 | 0.359 | 0.447 | 0.124 | 0.377 | 0.353 | 0.346 | 0.157 | 0.246 | 0.257 | 0.178 | 0.0965 | 0.348 | 0.332 | 0.379 | 0.139 | 1.02 | 1.03 | 1.07 | 0.237
CAL-12T | 0.611 | 0.556 | 0.585 | 0.298 | 0.422 | 0.552 | 0.376 | 0.179 | 0.929 | 1.26 | 1.16 | 1.1 | 0.434 | 0.264 | 0.262 | 0.358 | 1.21 | 0.939 | 0.91 | 0.477
NCI-H2085 | 0.786 | 0.726 | 0.934 | 0.594 | 0.465 | 0.495 | 0.447 | 0.5 | 0.941 | 0.796 | 0.899 | 0.918 | 0.94 | 0.816 | 0.827 | 0.844 | 1.2 | 0.974 | 1 | 0.791
NCI-H650 | 0.619 | 0.506 | 0.602 | 0.543 | 0.358 | 0.306 | 0.271 | 0.285 | 0.869 | 0.786 | 0.799 | 0.932 | 0.749 | 0.747 | 0.713 | 0.7 | 0.999 | 0.754 | 0.792 | 0.769
LCLC-97TM1 | 0.437 | 0.523 | 0.601 | 0.486 | 0.243 | 0.22 | 0.187 | 0.248 | 0.192 | 0.16 | 0.167 | 0.183 | 0.22 | 0.189 | 0.204 | 0.194 | 0.83 | 0.765 | 0.856 | 0.555
NCI-H2126 | 0.743 | 0.76 | 0.846 | 0.648 | 0.345 | 0.315 | 0.341 | 0.359 | 0.703 | 0.696 | 0.706 | 0.654 | 0.801 | 0.799 | 0.885 | 0.822 | 1.22 | 1.08 | 1.19 | 1.13
201T | 0.749 | 0.669 | 0.722 | 0.549 | 0.357 | 0.354 | 0.317 | 0.376 | 0.341 | 0.332 | 0.356 | 0.303 | 1.04 | 0.91 | 0.979 | 0.926 | 1.17 | 1.04 | 1.05 | 1.1
NCI-H1915 | 0.566 | 0.601 | 0.672 | 0.325 | 0.5 | 0.538 | 0.524 | 0.511 | 0.563 | 0.41 | 0.55 | 0.464 | 0.593 | 0.432 | 0.444 | 0.466 | 1.1 | 1.05 | 1.06 | 0.95
BEN | 0.27 | 0.33 | 0.287 | 0.241 | 0.516 | 0.46 | 0.456 | 0.448 | 0.888 | 0.613 | 0.923 | 0.752 | 0.413 | 0.547 | 0.387 | 0.635 | 0.819 | 0.667 | 0.959 | 0.745
